{"source": "patent US20150203471A1", "about": "“METHODS FOR IMPROVING CHICKEN PRODUCTION” (ELI LILLY AND COMPANY, priority 2012, published 2015)", "key": {"male broilers [1]": {"test_system": "male broilers", "experiment": "Study 1: growth performance and carcass responses of male broilers, compounds in feed vs positive and negative controls", "format": "in vivo, chicken", "details": "14 days; for change in vivo at 15 ppm, 15 µg/mL: Gallus gallus, feed or water, 336 h", "from_the_text": "An objective of this study is to evaluate growth performance and carcass responses of male broilers by comparing non-zero dosages of the above compounds versus a positive control (Compound 1) and negative controls. Table 1 sets out the specific treatment groups:\n(§1) The route of administration is oral, with the compounds mixed in feed, and provided Ad libitum. The age of the chickens of Day 1 of the study is 35 days old. Body weights are taken on the following days: • 1) Study Day 1 (pen weight) • 2) Study Day 14 (individual animal weights) • 3) Study Day 15 (individual weights on selected animals) • 4) Study Day 16 (blocks 1-5) • 5) Study Day 17 (blocks 6-10).\n(§2) Following collection of final weights, the following processing data is collected (hot weights) on individual animals: • 1) Live weight • 2) Hot carcass weight • 3) Fat pad weight • 4) Hot breast muscle weight • 5) Hot bone in leg weight"}, "male broilers [2]": {"test_system": "male broilers", "experiment": "Study 2: growth performance and carcass responses of male broilers, compounds in feed in the last 14 days prior to slaughter", "format": "in vivo, chicken", "protocol": "Compounds 2, 5, and 9 are used in this study. The study is conducted to evaluate growth performance and carcass responses of male broilers by comparing non-zero dosages of the compounds, versus negative control, administered in the last 14 days prior to slaughter. Table 3 sets out the specific treatment groups.\nas §1, with “15” for “14”, “16” for “15”, “animals in animals in blocks 1-4)” for “animals)”, “Day” for “Day 16 (blocks 1-5) • 5) Study Day”, “(individual weights on selected animals in animals in blocks 5-8)” for “(blocks 6-10).”\nas §2"}, "[3]": {"test_system": "Hubbard M99 X Cobb chicks", "experiment": "Study 3: dose response in live performance and carcass yields of commercial broilers raised to a small-size market", "format": "in vivo, chicken", "protocol": "This study is conducted to determine the dose response of the Compound 5 measured in live performance and carcass yields of commercial broilers raised to a small-size market when fed a “typical” feed. 2400 Hubbard M99 X Cobb chicks (1200 male/1200 female) are used in this study. Compound 5 is administered at the following doses: 0, 2, 4, 8, and 16 ppm, orally in feed, beginning when the chicks are 24 days of age and ending when the chicks are 38 days of age. The five different Compound 5 doses are administered in a mash diet formulated to meet all nutrient recommendations using only commercially available ingredients.\nParameters measured in the study include ADG (average daily gain), ADFI (average daily feed intake), GE (gain efficiency), and FE (feed efficiency). The birds are measured for carcass (without giblets), breast muscle (boneless-skinless), and leg-quarter weights. The live body weight on the day of processing is used to calculate the yields for carcass, breast meat, and leg quarters for the birds."}, "[4]": {"test_system": "Ross X Ross 708 male chicks", "experiment": "Study 4: live performance and carcass traits of broilers", "format": "in vivo, chicken", "details": "16 ppm in feed vs 0 ppm, 34 to 48 days of age", "protocol": "(§3) This study is conducted to investigate the effects of Compound 5 on live performance and carcass traits of broilers, and to evaluate the emission of various gases from broilers provision of feed with or without Compound 5. Ross X Ross 708 male chicks are used in this study. Compound 5 is administered at the following doses: 0 and 16 ppm, orally in feed, beginning when the chicks are 34 days of age and ending when the chicks are 48 days of age. The Compound 5 doses are administered in a mash diet formulated to meet all nutrient recommendations using only commercially available ingredients.\n(§4) Parameters measured in the study include ADG, ADFI, and FCR. The birds are measured for carcass (without giblets), breast muscle (boneless-skinless), leg-quarter, and abdominal fat weights. The live body weight on the day of processing is used to calculate the yields for carcass, breast meat, and leg quarters for the birds. Also measured are emissions of various gases. Cumulative gas emission are monitored and calculated for the following gases: NH3, NO, NO2, H2S, SO2, methane/non-methane total hydrocarbon, O2, and CO2. The efficacy of Compound 5 is determined by the cumulative emission of these gases, as well as by standardizing these cumulative values to their body, carcass, breast meat, and leg-quarter weights."}, "[5]": {"test_system": "Ross X Ross 708 male chicks", "experiment": "Study 4: cumulative gas emission from broilers", "format": "in vivo, chicken", "details": "16 ppm in feed, 34 to 48 days of age, compared to untreated birds", "protocol": "as §3, §4"}, "[6]": {"experiment": "Ames assay (mutagenicity)", "format": "cell-based", "details": "compared with the other compounds tested"}, "Zebrafish": {"test_system": "Zebrafish", "experiment": "Zebrafish assay (teratogenesis/chromosomal impact)", "format": "in vivo", "details": "compared with the other compounds tested"}, "[7]": {"details": "15 ppm in feed ad libitum, male broilers, percent change from negative control, * in cell = not significant"}, "[8]": {"details": "0, 2, 4, 8, 16 ppm in feed, 24 to 38 days of age"}, "[9]": {"details": "0, 2, 4, 8, 16 ppm in feed, 24 to 38 days of age, male and female chicks"}}, "note": "Structures can show the parent of a compound that is named as a salt. Where two headings read alike, the source gives them in different places."}
{"smiles": "CC(C)(Cc1ccc(Oc2ccccn2)cc1)NC[C@H](O)COc1cccc2c1C(C)(C)C(=O)N2", "note": "[Compound 5, 4-[{(2S)-3-({1,1-dimethyl-2-[4-(pyridin-2-yloxy)phenyl]ethyl}amino)-2-hydroxypropyl]oxy}-3,3-dimethyl-1,3-dihydro-2H-indol-2-one hydrochloride]", "values": [{"measurement": "Ave daily live wt gain % inc.", "setting": "male broilers [1]; [7]", "result": 5.8, "unit": "%"}, {"measurement": "Breast wt % inc.", "setting": "male broilers [1]; [7]", "result": 6.0, "unit": "%"}, {"measurement": "Feed intake % inc.", "setting": "male broilers [1]; [7]", "result": "1.1* %"}, {"measurement": "Gain effic % inc.", "setting": "male broilers [1]; [7]", "result": 4.9, "unit": "%"}, {"measurement": "Leg wt % inc.", "setting": "male broilers [1]; [7]", "result": 8.1, "unit": "%"}, {"measurement": "Fat Pad wt % dec.", "setting": "male broilers [1]; 15 ppm in feed ad libitum, male broilers, percent decrease from negative control, * in cell = not significant", "result": 17.4, "unit": "%"}, {"measurement": "fat pad weight (in words)", "setting": "male broilers [1]; 15 ppm in feed", "result": "reduce fat pad weight"}, {"measurement": "feed intake (in words)", "setting": "male broilers [1]; 15 ppm in feed", "result": "significant increase in feed intake"}, {"measurement": "gain versus untreated control (in words)", "setting": "male broilers [1]; 15 ppm in feed", "result": "significantly greater than untreated control"}, {"measurement": "significance of the fat pad weight difference", "setting": "male broilers [1]; 15 ppm in feed", "result": "significant"}, {"measurement": "improvement versus negative control and positive control (in words)", "setting": "male broilers [1]; 15 ppm in feed, positive control = Compound 1", "result": "significantly better improvement than both the negative control and the positive control"}, {"measurement": "change in vivo at 15 ppm, 15 µg/mL", "setting": "male broilers [1]; 15 ppm in feed ad libitum, male broilers 35 days old at Day 1, percent change from negative control, * in cell = not significant vs negative control, read-out: ADG % inc.", "result": 5.1, "unit": "%"}, {"measurement": "change in vivo at 15 ppm, 15 µg/mL", "setting": "male broilers [1]; 15 ppm in feed ad libitum, male broilers, percent change from negative control, * in cell = not significant, read-out: Hot carcass wt % inc.", "result": 5.8, "unit": "%"}, {"measurement": "ADG versus negative control group", "setting": "male broilers [2]; 3.5 ppm in feed", "result": "significantly higher"}, {"measurement": "F/G ratio (feed:gain efficiency) versus negative control group", "setting": "male broilers [2]; 3.5 ppm in feed", "result": "significantly lower"}, {"measurement": "G/F ratio (gain:feed efficiency) versus negative control group", "setting": "male broilers [2]; 3.5 ppm in feed", "result": "significantly higher"}, {"measurement": "hot bone-in leg weight versus negative control group", "setting": "male broilers [2]; 3.5 ppm in feed", "result": "significantly higher"}, {"measurement": "hot breast muscle weight versus negative control group", "setting": "male broilers [2]; 3.5 ppm in feed", "result": "significantly higher"}, {"measurement": "hot carcass weight versus negative control group", "setting": "male broilers [2]; 3.5 ppm in feed", "result": "significantly higher"}, {"measurement": "ADG versus negative control group", "setting": "male broilers [2]; 7 ppm in feed", "result": "significantly higher"}, {"measurement": "F/G ratio (feed:gain efficiency) versus negative control group", "setting": "male broilers [2]; 7 ppm in feed", "result": "significantly lower"}, {"measurement": "G/F ratio (gain:feed efficiency) versus negative control group", "setting": "male broilers [2]; 7 ppm in feed", "result": "significantly higher"}, {"measurement": "hot bone-in leg weight versus negative control group", "setting": "male broilers [2]; 7 ppm in feed", "result": "significantly higher"}, {"measurement": "hot breast muscle weight versus negative control group", "setting": "male broilers [2]; 7 ppm in feed", "result": "significantly higher"}, {"measurement": "hot carcass weight versus negative control group", "setting": "male broilers [2]; 7 ppm in feed", "result": "significantly higher"}, {"measurement": "leg-quarter weight", "setting": "[3]; [8]", "result": "Improvements are observed"}, {"measurement": "leg-quarter yield", "setting": "[3]; [8]", "result": "Improvements are observed"}, {"measurement": "FE (feed efficiency)", "setting": "[3]; [9]", "result": "Improvements are observed"}, {"measurement": "GE (gain efficiency)", "setting": "[3]; [9]", "result": "Improvements are observed"}, {"measurement": "dose response of the improvements (GE, FE, leg-quarter weight and yield)", "setting": "[3]; doses 2, 4, 8, 16 ppm in feed", "result": "doses at above 2 ppm do not show additional benefit"}, {"measurement": "GE and FE by sex", "setting": "[3]; male versus female broilers, 24 to 38 days of age", "result": "positively impacted only in female broilers"}, {"measurement": "live performance and carcass traits monitored", "setting": "[4]", "result": "improvements in all live performance carcass traits monitored, except for ADFI and mortality"}, {"measurement": "reduction in NH3 emission standardized to live weight of the birds or its saleable cuts", "setting": "[5]", "result": "more than 30%"}, {"measurement": "reduction of cumulative emission of H2S", "setting": "[5]", "result": 19.0, "unit": "%"}, {"measurement": "reduction of cumulative emission of NH3", "setting": "[5]", "result": 29.2, "unit": "%"}, {"measurement": "Ames assay result (mutagenicity)", "setting": "[6]", "result": "better results"}, {"measurement": "Zebrafish assay result (teratogenesis/chromosomal impact)", "setting": "Zebrafish", "result": "better results"}]}
